PubChem BioAssay AID248 (DTP/NCI, 2004)
“And” between values parts separate entries of the source, which are not always exact repeats. Equal entries are not always repeated. Inconclusive results and toxic doses are left out. Cut-off read from the data, not from the text of the source: active = T/C of 150% or more; inactive = T/C below 125%. Square brackets hold non-standard residues; d marks the D form. Peptide text beside a SMILES is read from it. * marks the point of attachment. ξ: configuration not given here. ξF = NC(Cc1ccccc1)C(=O)O; Cbz = O=C(OCc1ccccc1)*

System: L1210 leukemia ip in BDF1 mice, survival T/C
Experiment: NCI In Vivo Anticancer Drug Screen. Data for tumor model L1210 Leukemia (intraperitoneal) in B6D2F1 (BDF1) mice
Conditions: endpoint: mean survival time, higher = longer survival
Outline: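 Value reflects the ratio of survival in compound-treated mice to survival in vehicle-treated controls, with both groups carrying the same transplanted tumor.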

[1] = dose: 100.0 mg/kg/injection, schedule: Q04DX003 (ip), vehicle: Klucel (hydroxypropylcellulose) (HPC)
[2] = dose: 200.0 mg/kg/injection, schedule: Q04DX003 (ip), vehicle: Klucel (hydroxypropylcellulose) (HPC)
[3] = dose: 400.0 mg/kg/injection, schedule: Q04DX003 (ip), vehicle: Klucel (hydroxypropylcellulose) (HPC)
[4] = dose: 100.0 mg/kg/injection, schedule: Q04DX003 (ip), vehicle: saline with Tween-80
[5] = dose: 100.0 mg/kg/injection, schedule: Q01DX009 (ip), vehicle: saline with Tween-80
[6] = dose: 100.0 mg/kg/injection, schedule: Q04DX003 (ip), vehicle: saline
[7] = dose: 200.0 mg/kg/injection, schedule: Q04DX003 (ip), vehicle: saline
[8] = dose: 400.0 mg/kg/injection, schedule: Q04DX003 (ip), vehicle: saline
[9] = dose: 100.0 mg/kg/injection, schedule: Q01DX001 (ip), vehicle: carboxymethylcellulose (CMC)
[10] = dose: 200.0 mg/kg/injection, schedule: Q01DX001 (ip), vehicle: carboxymethylcellulose (CMC)

Measured: T/C

CCCCCCCCCCCC(=O)NC(=S)Nc1ccc([N+](=O)[O-])cc1OC
inactive: [1] 96 % of control | [2] 92 % of control | [3] 102 % of control

OC1(c2ccccc2)CCN(C/C=C/c2ccccc2Cl)CC1
inactive: [4] 92 % of control | dose: 200.0 mg/kg/injection, schedule: Q04DX003 (ip), vehicle: saline with Tween-80 93 % of control | dose: 400.0 mg/kg/injection, schedule: Q04DX003 (ip), vehicle: saline with Tween-80 90 % of control

Cc1ccc(S(=O)(=O)OC2CCCC3CCCCC32)cc1 (configuration not stated)
inactive: dose: 100.0 mg/kg/injection, schedule: Q01DX001 (ip), vehicle: saline 98 % of control | dose: 200.0 mg/kg/injection, schedule: Q01DX001 (ip), vehicle: saline 100 % of control | dose: 400.0 mg/kg/injection, schedule: Q01DX001 (ip), vehicle: saline 98 % of control

CNC(=O)Oc1c([N+](=O)[O-])cc([N+](=O)[O-])c2ccccc12
inactive: dose: 75.0 mg/kg/injection, schedule: Q01DX001 (ip), vehicle: other 111 % of control | dose: 150.0 mg/kg/injection, schedule: Q01DX001 (ip), vehicle: other 102 % of control

O=C(Cc1ccccc1)NCc1ccccc1Cl
inactive: dose: 25.0 mg/kg/injection, schedule: Q01DX009 (ip), vehicle: saline with Tween-80 103 % of control | dose: 50.0 mg/kg/injection, schedule: Q01DX009 (ip), vehicle: saline with Tween-80 94 % of control | [5] 96 % of control and 87 % of control | dose: 100.0 mg/kg/injection, schedule: Q04DX002 (ip), vehicle: saline with Tween-80 96 % of control | dose: 150.0 mg/kg/injection, schedule: Q01DX009 (ip), vehicle: saline with Tween-80 89 % of control | dose: 200.0 mg/kg/injection, schedule: Q04DX002 (ip), vehicle: saline with Tween-80 107 % of control | dose: 225.0 mg/kg/injection, schedule: Q01DX009 (ip), vehicle: saline with Tween-80 94 % of control | dose: 335.0 mg/kg/injection, schedule: Q01DX009 (ip), vehicle: saline with Tween-80 91 % of control | dose: 400.0 mg/kg/injection, schedule: Q04DX002 (ip), vehicle: saline with Tween-80 111 % of control

NC(=O)C1C(c2ccccc2)C1c1ccccc1 (configuration not stated)
inactive: dose: 100.0 mg/kg/injection, schedule: Q04DX002 (ip), vehicle: Klucel (hydroxypropylcellulose) (HPC) 97 % of control | dose: 200.0 mg/kg/injection, schedule: Q04DX002 (ip), vehicle: Klucel (hydroxypropylcellulose) (HPC) 102 % of control | dose: 400.0 mg/kg/injection, schedule: Q04DX002 (ip), vehicle: Klucel (hydroxypropylcellulose) (HPC) 94 % of control

COC(=O)C(Cc1ccccc1)NC(=O)CNC(=O)OCc1ccccc1 (stereo not drawn) (Cbz-Gly-[ξF]-OMe)
inactive: dose: 100.0 mg/kg/injection, schedule: Q04DX003 (ip), vehicle: other 106 % of control | dose: 200.0 mg/kg/injection, schedule: Q04DX003 (ip), vehicle: other 101 % of control | dose: 400.0 mg/kg/injection, schedule: Q04DX003 (ip), vehicle: other 106 % of control

COC(C)(OC)C(N)=O
inactive: [5] 96 % of control | [1] 94 % of control | dose: 200.0 mg/kg/injection, schedule: Q01DX009 (ip), vehicle: saline with Tween-80 111 % of control | [2] 96 % of control | dose: 400.0 mg/kg/injection, schedule: Q01DX009 (ip), vehicle: saline with Tween-80 98 % of control | [3] 92 % of control

O=C(Cc1ccccc1)Cc1ccccc1
inactive: dose: 25.0 mg/kg/injection, schedule: Q01DX009 (ip), vehicle: water 104 % of control | dose: 50.0 mg/kg/injection, schedule: Q01DX009 (ip), vehicle: water 115 % of control | dose: 100.0 mg/kg/injection, schedule: Q01DX009 (ip), vehicle: water 104 % of control | dose: 200.0 mg/kg/injection, schedule: Q01DX009 (ip), vehicle: water 94 % of control | dose: 400.0 mg/kg/injection, schedule: Q01DX009 (ip), vehicle: water 94 % of control

CC(C(N)=O)N1C(=O)C2C3CCC(C3)C2C1=O (configuration not stated)
inactive: [6] 103 % of control | [7] 91 % of control | [8] 86 % of control

CC(C)=CC(=O)C1C(=O)c2ccccc2C1=O
inactive: dose: 50.0 mg/kg/injection, schedule: Q01DX001 (ip), vehicle: carboxymethylcellulose (CMC) 96 % of control | [9] 90 % of control

CCOC(=O)c1cc(OCC)c2c(ccc3ccccc32)n1
inactive: [9] 97 % of control | dose: 100.0 mg/kg/injection, schedule: Q01DX009 (ip), vehicle: carboxymethylcellulose (CMC) 95 % of control and 103 % of control | dose: 100.0 mg/kg/injection, schedule: Q04DX002 (ip), vehicle: carboxymethylcellulose (CMC) 102 % of control and 105 % of control | dose: 100.0 mg/kg/injection, schedule: Q04DX003 (ip), vehicle: carboxymethylcellulose (CMC) 103 % of control | [10] 112 % of control | dose: 200.0 mg/kg/injection, schedule: Q01DX009 (ip), vehicle: carboxymethylcellulose (CMC) 98 % of control and 106 % of control | dose: 200.0 mg/kg/injection, schedule: Q04DX002 (ip), vehicle: carboxymethylcellulose (CMC) 97 % of control and 102 % of control | dose: 200.0 mg/kg/injection, schedule: Q04DX003 (ip), vehicle: carboxymethylcellulose (CMC) 97 % of control | dose: 400.0 mg/kg/injection, schedule: Q01DX001 (ip), vehicle: carboxymethylcellulose (CMC) 100 % of control | dose: 400.0 mg/kg/injection, schedule: Q01DX009 (ip), vehicle: carboxymethylcellulose (CMC) 98 % of control and 101 % of control | dose: 400.0 mg/kg/injection, schedule: Q04DX002 (ip), vehicle: carboxymethylcellulose (CMC) 96 % of control and 97 % of control | dose: 400.0 mg/kg/injection, schedule: Q04DX003 (ip), vehicle: carboxymethylcellulose (CMC) 102 % of control

CN1CCC=C(CO)C1
inactive: [6] 97 % of control | [7] 107 % of control | [8] 103 % of control

C/C(=N\NC(=O)c1ccc([N+](=O)[O-])cc1)c1ccccc1
inactive: [9] 87 % of control | [10] 87 % of control

FC(F)(F)c1ccc(C2=Nc3cccc4cccc(c34)N2)cc1
inactive: dose: 15.0 mg/kg/injection, schedule: Q01DX Z (ip), vehicle: saline 105 % of control | dose: 30.0 mg/kg/injection, schedule: Q01DX Z (ip), vehicle: saline 112 % of control | dose: 60.0 mg/kg/injection, schedule: Q01DX Z (ip), vehicle: saline 110 % of control | dose: 120.0 mg/kg/injection, schedule: Q01DX Z (ip), vehicle: saline 98 % of control | dose: 120.0 mg/kg/injection, schedule: Q01DX Z (oral), vehicle: saline 105 % of control | dose: 240.0 mg/kg/injection, schedule: Q01DX Z (ip), vehicle: saline 97 % of control | dose: 240.0 mg/kg/injection, schedule: Q01DX Z (oral), vehicle: saline 118 % of control | dose: 480.0 mg/kg/injection, schedule: Q01DX Z (ip), vehicle: saline 86 % of control | dose: 480.0 mg/kg/injection, schedule: Q01DX Z (oral), vehicle: saline 106 % of control | dose: 960.0 mg/kg/injection, schedule: Q01DX Z (oral), vehicle: saline 91 % of control

O=C1CCSC(=S)N1c1ccc(Cl)c(Cl)c1
inactive: dose: 25.0 mg/kg/injection, schedule: Q04DX003 (ip), vehicle: saline with Tween-80 101 % of control | dose: 50.0 mg/kg/injection, schedule: Q04DX003 (ip), vehicle: saline with Tween-80 101 % of control | [4] 104 % of control
